“Also recorded” adds a separate entry of the source. Like-named read-outs stand apart in the source and are kept apart here.
What was measured:
[1] = tested on: Sprague-Dawley normoglycemic rat model; set-up: method as in PMID 24566854; conditions: cited from earlier work
[2] = tested on: AGE formation (bovine serum albumin, methylglyoxal); experiment: In vitro antiglycation assay (BSA-methylglyoxal, AGE fluorescence); format: biochemical
Protocol: Methylglyoxal (14 mM), sodium azide (30 mM) in 0.1 M phosphate buffer, bovine serum albumin (10 mg/mL), and various concentrations of the compounds (prepared in 10% DMSO) were incubated under sterile conditions at 37 °C for 9 days. […] Standard rutin was used as a positive control and percent inhibition of AGE formation in the test sample versus control was calculated by using the following relation: % Inhibition = ⦋1−Fluorescence of test sample/Fluorescence of the control⦌×100

[3] = target: T1, α-glucosidase (Saccharomyces cerevisiae, UniProt P53341); conditions: for α-Glucosidase Inhibition IC50 (µM) ± (SEM): pH 6.8, 37 °C, PNP-G 0.7 mM, mean ± SEM, triplicate
T1 sequence (P53341 whole entry): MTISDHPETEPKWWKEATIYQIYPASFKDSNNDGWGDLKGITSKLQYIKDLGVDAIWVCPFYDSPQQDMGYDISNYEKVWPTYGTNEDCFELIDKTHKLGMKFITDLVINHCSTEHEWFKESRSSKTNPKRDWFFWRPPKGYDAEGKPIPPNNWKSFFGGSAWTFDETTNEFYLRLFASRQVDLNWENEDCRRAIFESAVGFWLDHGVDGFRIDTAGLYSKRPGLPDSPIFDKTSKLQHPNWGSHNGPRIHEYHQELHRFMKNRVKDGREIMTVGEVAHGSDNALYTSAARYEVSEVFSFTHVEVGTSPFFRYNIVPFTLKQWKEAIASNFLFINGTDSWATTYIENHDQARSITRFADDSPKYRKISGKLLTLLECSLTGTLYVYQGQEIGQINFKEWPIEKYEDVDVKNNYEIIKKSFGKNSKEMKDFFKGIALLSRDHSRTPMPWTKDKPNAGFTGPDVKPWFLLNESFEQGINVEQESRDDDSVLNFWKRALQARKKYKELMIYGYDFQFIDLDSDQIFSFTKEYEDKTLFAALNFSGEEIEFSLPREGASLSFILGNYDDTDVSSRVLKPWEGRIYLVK
Protocol: (§1) α-Glucosidase inhibitory potential of test compounds was assayed by using 0.1 M phosphate buffer (pH 6.8) at 37 °C. The enzyme (0.2 U/mL) in phosphate buffer was incubated with selected concentrations of test compounds at 37 °C for 15 min. The substrate, p-nitrophenyl-α-D-glucopyranoside (PNP-G) (0.7 mM) was added in each well of 96-well plate and change in absorbance was monitored at 400 nm for 30 min. […] The increase in absorption due to the hydrolysis of PNP-G by α-glucosidase was recorded continuously with the spectrophotometer (Spectra Max, MD, USA.) and percent inhibition was calculated by using the following formula: % Inhibition = 100−⦋OD of test sample/OD of the control×100⦌
(§2) The experiments were performed by using 96-well microplate reader (SpectraMax M2, Molecular Devices, CA, USA) and the results were analyzed by SoftMaxPro 4.8 and MS-Excel. The experiments were repeated in triplicate, and results were presented as means ± SEM. IC50 values were determined by using EZ-FIT, Enzyme kinetics software by Perrella Scientific, Inc., Amherst, MA, USA.

[4] = target: T1, α-glucosidase; experiment: biochemical
Protocol: as §1, §2

Row | Compound | α-glucosidase inhibitory activity (in words) [3] | α-Glucosidase Inhibition IC50 (µM) ± (SEM) [3] | Antiglycation IC50 (µM) ± (SEM) ([2]; 37 °C, 9 days, mean ± SEM) | IC50 [4] [µM] | also measured
1 | 17β-hydroxywithanolide K |  |  |  |  | anti-inflammatory activity [1]: potent; antihyperglycemic activity [1]: potent
2 | CC1=C(C)C(=O)O[C@@H]([C@](C)(O)[C@]2(O)CC[C@@]3(O)[C@@H]4C[C@H]5O[C@]56[C@@H](O)C=CC(=O)[C@]6(C)[C@H]4CC[C@]23C)C1 [4β-hydroxywithanolide E] |  |  |  |  | anti-inflammatory activity [1]: potent; antihyperglycemic activity [1]: potent
3 | CC1=C(COC2OC(CO)C(O)C(O)C2O)C(=O)OC(C2(C)OC34CCC2C3(C)CCC2C4CC=C3CC(O)CC(=O)C32C)C1 (stereo not drawn) [Compound 1, 3β-Hydroxy-14R,20R-epoxy-1-oxowitha-5,24-dienolide-27-O-β-D glucopyranoside] | did not possess α-glucosidase inhibitory activity; also recorded: inactive | Inactive |  |  | Antiglycation IC50 (µM) ± (SEM) [2]: Inactive
4 | CC1=C(C)C(=O)O[C@@H]([C@@](C)(O)[C@@]2(O)CC[C@@]3(O)[C@@H]4CC=C5CC=CC(=O)[C@]5(C)[C@H]4CC[C@]23C)C1 [Compound 2, withanolid J] |  |  | Inactive | 683 ± 0.94 | 
5 | CC1=C(C)C(=O)O[C@@H]([C@@]2(C)O[C@@]34CC[C@@H]2[C@@]3(C)CC[C@H]2[C@H]4CC=C3C=CCC(=O)[C@@]32C)C1 [Compound 3, coagulin E] | did not possess α-glucosidase inhibitory activity | Inactive | Inactive |  | 
6 | CC1=C(C)C(=O)O[C@@H]([C@@](C)(O)[C@@]2(O)CC[C@@]3(O)[C@@H]4CCC5=CC=CC(=O)[C@]5(C)[C@H]4CC[C@]23C)C1 [Compound 4, withaperuvin C] |  |  | Inactive | 407 ± 4.5 | 
7 | CC1=C(CO)C(=O)O[C@@H]([C@@](C)(O)[C@H]2CC[C@@]3(O)[C@@H]4CC=C5C=CCC(=O)[C@]5(C)[C@H]4CC[C@]23C)C1 [Compound 5, 27-hydroxywithanolide I] |  |  | Inactive | 66.7 ± 3.6 | 
8 | CC1=C(CO)C(=O)O[C@@H]([C@@](C)(O)[C@@]2(O)CC[C@@]3(O)[C@@H]4CC=C5C=CCC(=O)[C@]5(C)[C@H]4CC[C@]23C)C1 [Compound 6, ajugin E] | did not possess α-glucosidase inhibitory activity | Inactive |  |  | Antiglycation IC50 (µM) ± (SEM) [2]: Inactive
9 | C[C@@H]1O[C@@H](OC[C@H]2O[C@@H](Oc3c(-c4ccc(O)c(O)c4)oc4cc(O)cc(O)c4c3=O)[C@H](O)[C@@H](O)[C@@H]2O)[C@H](O)[C@H](O)[C@H]1O [Rutin, rutin, reference compound] |  |  |  |  | IC50 ([2]; 37 °C, 9 days, mean ± SEM): 288.9 ± 1.84 µM
